Consider two molecules from patent EP4635945A1, “CRYSTAL FORM OF PROXIMOD, PREPARATION METHOD THEREFOR, AND USE THEREOF” (Jiankuan (Suzhou) Biotechnology Co., Ltd, priority 2022, dated 2024).

The series is described as follows: Crystal form stability on vacuum drying (XRPD). It is filed as physicochemical. As for the experimental part: After the above sample was dried under vacuum at 50 °C for 6 hours, the XRPD detection was performed. […] The TGA curves of the sample of the crystal form D of proximod which was dried and the sample of the crystal form D of proximod which was dried and placed at room temperature for two days are shown in FIGS. 16 and 17, respectively. […] The theoretical weight loss of the proximod […] is 6.1%. […] Based on the above experimental results, it is inferred that the crystal form D is an unstable sesquihydrate. It is inferred that the crystal form D is an unstable sesquihydrate and is prone to crystal transformation during drying and storage, making it difficult to prepare a pure phase.
The obtained wet sample was subjected to the XRPD detection. The obtained solid was the crystal form F of the present application, and the X-ray powder diffraction (XRPD) pattern of the crystal form F is shown in FIG. 21. After the wet sample was dried under vacuum at 50 °C for 2 hours, the XRPD detection was performed.

Each structure is given as a SMILES string.

For `CCCc1nc(-c2ccc(-c3ccc(CCC(N)(CO)CO)cc3)cc2)co1.Cl` [Crystal form F, 2-amino-2-{2-(4'-(2-propyloxazol-4-yl)-[1,1'-biphenyl]-4-yl)ethyl}-1,3-propanediol hydrochloride], for the setting “wet sample dried under vacuum at 50 °C for 2 hours”, the “Crystal form after drying (XRPD)” value was “partially crystal transformed into the crystal form A”. Regarding `CCCc1nc(-c2ccc(-c3ccc(CCC(N)(CO)CO)cc3)cc2)co1.Cl` [Crystal form D, 2-amino-2-{2-(4'-(2-propyloxazol-4-yl)-[1,1'-biphenyl]-4-yl)ethyl}-1,3-propanediol hydrochloride], the “Crystal form after drying (XRPD)” value (dried under vacuum at 50 °C for 6 hours) is “partially crystal transformed into the crystal form A”.
